What was measured:
Botrytis cinerea = experiment: Activity against gray mold on bell pepper leaves caused by Botrytis cinerea, protective application; assay type: in vivo; conditions: 250 ppm active compound, sprayed to runoff, bell pepper seedlings, inoculated next day, assessed after 5 days; untreated plants 90% infected
Protocol: The active compounds were prepared separately as a stock solution with 0.25% by weight of active compound in acetone or DMSO. 1% by weight of the emulsifier Uniperol® EL (wetting agent having emulsifying and dispersing action based on ethoxylated alkyl-phenols) was added to this solution. The stock solutions of the active compounds were diluted with water to the desired concentration. 1) Activity Against Gray Mold on Bell Pepper Leaves Caused by Botrytis cinerea, Protective Application […] The next day, the treated plants were inoculated with a spore suspension of Botrytis cinerea, this contained 1.7×10^6 spores/ml in a 2% strength aqueous biomalt solution. The test plants were then placed in a climate-chamber at 22-24° C. and high atmospheric humidity.

[1] = test system: Pyrenophora [syn. Drechslera] teres; experiment: Activity against net blotch of barley caused by Pyrenophora teres; assay type: in vivo; conditions: 250 ppm active compound, sprayed to runoff, barley seedlings, inoculated 24 hours after drying, assessed after 6 days; untreated plants 80% infected
Protocol: The active compounds were prepared separately as a stock solution with 0.25% by weight of active compound in acetone or DMSO. 1% by weight of the emulsifier Uniperol® EL (wetting agent having emulsifying and dispersing action based on ethoxylated alkyl-phenols) was added to this solution. The stock solutions of the active compounds were diluted with water to the desired concentration. 4) Activity Against Net Blotch of Barley Caused by Pyrenophora teres […] Drechslera] teres, the causative agent of net blotch. The test plants were subsequently placed in a greenhouse at temperatures of between 20 and 24° C. and a relative atmospheric humidity of 95 to 100%. After 6 days, the extent of development of the disease was determined visually in % of infection of the total leaf area.

melting point	SMILES	extent of the fungal infection on the leaves determined visually in % (Botrytis cinerea)	extent of development of the disease determined visually in % of infection of the total leaf area [1]
158 °C	Cc1nc(C(N)=S)nc(NC(C)C)c1-c1c(F)cc(F)cc1F [Compound I-23]	–	–
145 to 149 °C	CC(C)Nc1nc(C(N)=S)nc(Cl)c1-c1c(F)cc(F)cc1F [Compound I-4]	not infected	–

Continued, compound first:

SMILES	melting point	extent of the fungal infection on the leaves determined visually in % (Botrytis cinerea)	extent of development of the disease determined visually in % of infection of the total leaf area [1]
CCC(C)Nc1nc(C(N)=S)nc(Cl)c1-c1c(F)cccc1Cl (stereo not drawn) [Compound I-8, 4-sec-butylamino-6-chloro-5-(2-chloro-6-fluorophenyl)pyrimidine-2-thiocarbamide]	147 to 150 °C	not infected	–
CC(C)Nc1nc(C(N)=S)nc(Cl)c1-c1c(F)cccc1Cl [Compound I-3]	–	not infected	–
C[C@H](Nc1nc(C(N)=S)nc(Cl)c1-c1c(F)cc(F)cc1F)C(F)(F)F [Compound I-2, (S)-4-chloro-6-(2,2,2-trifluoro-1-methylethylamino)-5-(2,4,6-trifluorophenyl)pyrimidine-2-thiocarbamide]	–	not infected	–
CCN(CC)c1nc(C(N)=S)nc(Cl)c1-c1c(F)cc(F)cc1F [Compound I-19]	55 to 58 °C	–	10%
